According to ChEMBL document CHEMBL3259641, “Identification of tertiary sulfonamides as RORc inverse agonists” (Bioorg Med Chem Lett, 2014):

Assays:
[1] = molecular target: T1, Nuclear receptor ROR-gamma (Homo sapiens, UniProt P51449); test: Inverse agonist activity at an N-terminal 6xHis-GST-tag human RORc-LBD assessed as inhibition of recruitment of the SRC1 co-activator peptide after 3 hrs by time-resolved FRET assay; type: functional
T1 sequence (P51449 whole entry): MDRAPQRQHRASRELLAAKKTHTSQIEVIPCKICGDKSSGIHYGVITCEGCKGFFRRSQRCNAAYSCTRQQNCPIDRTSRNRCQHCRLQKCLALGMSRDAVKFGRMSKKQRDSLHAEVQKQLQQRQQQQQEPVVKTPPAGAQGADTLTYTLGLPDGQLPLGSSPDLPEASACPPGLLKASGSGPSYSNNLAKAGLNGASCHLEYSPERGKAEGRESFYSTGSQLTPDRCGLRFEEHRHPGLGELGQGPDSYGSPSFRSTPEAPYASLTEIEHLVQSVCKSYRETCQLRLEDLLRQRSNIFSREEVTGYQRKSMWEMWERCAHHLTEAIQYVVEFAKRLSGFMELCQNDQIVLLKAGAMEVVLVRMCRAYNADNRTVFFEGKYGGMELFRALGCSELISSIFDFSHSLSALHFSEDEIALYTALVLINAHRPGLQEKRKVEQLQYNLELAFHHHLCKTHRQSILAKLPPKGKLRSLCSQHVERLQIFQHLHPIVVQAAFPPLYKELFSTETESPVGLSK

[2] = molecular target: T1, Nuclear receptor ROR-gamma; test: Displacement of [3H2]25-hydroxycholesterol from human RORc-LBD after 3 hrs by scintillation counting
[3] = molecular target: T2, Oxysterols receptor LXR-beta (Homo sapiens, UniProt P55055); test: Inverse agonist activity at human GAL4-fused LXRbeta expressed in HEK293 cells assessed as inhibition of T0901317-induced transcriptional activity after 5 hrs by luciferase reporter gene assay; type: cell-based
T2 sequence (P55055 whole entry): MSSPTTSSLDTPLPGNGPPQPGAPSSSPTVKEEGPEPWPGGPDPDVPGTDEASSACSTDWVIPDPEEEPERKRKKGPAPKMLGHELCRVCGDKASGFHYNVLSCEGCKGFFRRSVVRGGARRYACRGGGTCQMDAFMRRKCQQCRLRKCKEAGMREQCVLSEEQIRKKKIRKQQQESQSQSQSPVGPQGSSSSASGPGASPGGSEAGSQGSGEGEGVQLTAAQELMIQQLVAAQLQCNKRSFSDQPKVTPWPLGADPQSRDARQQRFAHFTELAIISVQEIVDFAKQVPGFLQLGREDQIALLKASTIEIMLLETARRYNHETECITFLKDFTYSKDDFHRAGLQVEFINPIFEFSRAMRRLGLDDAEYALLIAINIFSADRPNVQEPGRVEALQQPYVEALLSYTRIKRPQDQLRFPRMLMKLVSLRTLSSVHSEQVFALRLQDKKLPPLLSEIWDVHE

[4] = molecular target: T3, Nuclear receptor ROR-beta (Homo sapiens, UniProt Q92753); test: Inverse agonist activity at human GAL4-fused RORb expressed in HEK293 cells after 5 hrs by luciferase reporter gene based transcriptional assay; type: cell-based
T3 sequence (Q92753 whole entry): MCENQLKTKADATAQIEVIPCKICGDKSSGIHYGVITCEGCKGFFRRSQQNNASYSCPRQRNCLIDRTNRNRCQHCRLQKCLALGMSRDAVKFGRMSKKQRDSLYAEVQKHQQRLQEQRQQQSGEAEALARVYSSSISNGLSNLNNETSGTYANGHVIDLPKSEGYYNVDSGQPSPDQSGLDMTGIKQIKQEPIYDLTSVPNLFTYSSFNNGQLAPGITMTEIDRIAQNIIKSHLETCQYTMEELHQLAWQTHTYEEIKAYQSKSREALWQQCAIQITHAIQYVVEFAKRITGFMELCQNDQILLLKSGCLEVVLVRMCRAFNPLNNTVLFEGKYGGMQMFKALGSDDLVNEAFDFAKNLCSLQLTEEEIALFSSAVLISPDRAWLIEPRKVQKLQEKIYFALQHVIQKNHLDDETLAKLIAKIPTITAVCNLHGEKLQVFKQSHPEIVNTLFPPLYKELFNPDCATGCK

[5] = molecular target: T4, Nuclear receptor ROR-alpha (Homo sapiens, UniProt P35398); test: Inverse agonist activity at human GAL4-fused RORa expressed in HEK293 cells after 5 hrs by luciferase reporter gene based transcriptional assay; type: cell-based
T4 sequence (P35398 whole entry): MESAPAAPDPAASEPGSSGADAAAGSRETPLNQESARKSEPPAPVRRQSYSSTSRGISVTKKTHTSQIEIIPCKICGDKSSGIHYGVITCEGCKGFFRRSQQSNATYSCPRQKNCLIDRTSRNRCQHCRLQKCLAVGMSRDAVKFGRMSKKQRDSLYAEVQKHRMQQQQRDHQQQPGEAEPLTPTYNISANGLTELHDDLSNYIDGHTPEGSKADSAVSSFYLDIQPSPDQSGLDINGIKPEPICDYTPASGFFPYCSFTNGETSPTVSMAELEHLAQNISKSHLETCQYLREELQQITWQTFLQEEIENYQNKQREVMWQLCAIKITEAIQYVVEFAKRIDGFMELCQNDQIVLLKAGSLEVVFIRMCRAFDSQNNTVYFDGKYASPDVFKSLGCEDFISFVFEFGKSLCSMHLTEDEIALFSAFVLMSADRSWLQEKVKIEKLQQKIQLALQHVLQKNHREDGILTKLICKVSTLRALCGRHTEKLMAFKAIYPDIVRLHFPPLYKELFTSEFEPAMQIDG

[6] = molecular target: T5, Oxysterols receptor LXR-alpha (Homo sapiens, UniProt Q13133); test: Inverse agonist activity at human GAL4-fused LXRalpha expressed in HEK293 cells assessed as inhibition of T0901317-induced transcriptional activity after 5 hrs by luciferase reporter gene assay; type: cell-based
T5 sequence (Q13133 whole entry): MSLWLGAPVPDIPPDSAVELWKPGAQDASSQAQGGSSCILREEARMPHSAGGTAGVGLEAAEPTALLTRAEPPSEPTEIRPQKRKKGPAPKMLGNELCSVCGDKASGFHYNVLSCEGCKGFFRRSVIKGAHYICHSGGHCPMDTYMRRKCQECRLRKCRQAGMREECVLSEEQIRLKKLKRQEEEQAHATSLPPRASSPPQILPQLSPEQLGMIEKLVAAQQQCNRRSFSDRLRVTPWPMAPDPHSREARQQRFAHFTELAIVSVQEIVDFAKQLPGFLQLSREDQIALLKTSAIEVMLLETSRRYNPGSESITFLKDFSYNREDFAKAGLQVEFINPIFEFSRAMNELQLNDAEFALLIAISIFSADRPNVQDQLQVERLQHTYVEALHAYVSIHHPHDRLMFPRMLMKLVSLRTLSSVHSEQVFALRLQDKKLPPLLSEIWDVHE

EC50 [1] | IC50 [2] | EC50 [3] | EC50 [4] | EC50 [5] | EC50 [6] | Compound
> 10 µM | > 10 µM | – | – | – | – | CC(C)CN(Cc1cccc(-c2ccc(S(C)(=O)=O)cc2)c1)S(=O)(=O)Cc1ccccc1
> 10 µM | > 10 µM | – | – | – | – | CC(C)CN(Cc1cnc(-c2ccc(S(C)(=O)=O)cc2)s1)S(=O)(=O)Cc1ccccc1
– | – | 3.8 µM | 3.7 µM | 3.8 µM | 3.6 µM | CC(C)CN(Cc1ccc(-c2ccc(NS(C)(=O)=O)cc2)cc1)S(=O)(=O)Cc1ccccc1
– | – | > 10 µM | > 10 µM | > 10 µM | > 10 µM | CC(C)CN(Cc1ccc(-c2ccc(C(N)=O)cc2)cc1)S(=O)(=O)Cc1ccccc1
– | – | 3.9 µM | 2.2 µM | 2.8 µM | 3.7 µM | CC(C)CN(Cc1ccc(-c2ccc(S(C)(=O)=O)cc2)s1)S(=O)(=O)Cc1ccccc1
– | > 10 µM | – | – | – | – | CC(C)CN(Cc1ccc(-c2ccc(C#N)nc2)s1)S(=O)(=O)Cc1ccccc1
– | – | – | 5 µM | 4.2 µM | – | CC(C)CN(Cc1ccc(-c2cccc(S(C)(=O)=O)c2)s1)S(=O)(=O)Cc1ccccc1
